According to ChEMBL document CHEMBL1122817, “Synthesis and biological activity of substituted [[3(S)-(acylamino)-2-oxo-1-azetidinyl]oxy]acetic acids. A new class of heteroatom-activated beta-lactam antibiotics” (1985):

Assays:
Bacillus subtilis [1] = experiment: Inhibitory activity against Bacillus Subtilis X12 at 10 mg/mL concentration using Agar disk plate assay; assay type: functional
Bacillus subtilis [2] = experiment: Inhibitory activity against Bacillus Subtilis X12M at 10 mg/mL concentration using Agar disk plate assay; assay type: functional
Escherichia coli [3] = experiment: Inhibitory activity against Escherichia coli X580 at 10 mg/mL concentration using Agar disk plate assay; assay type: functional
Proteus vulgaris [4] = experiment: Inhibitory activity against Proteus vulgaris X45 at 10 mg/mL concentration using Agar disk plate assay; assay type: functional
Micrococcus luteus [5] = experiment: Inhibitory activity against Sarcina lutea X186 at 10 mg/mL concentration using Agar disk plate assay; assay type: functional
Staphylococcus aureus [6] = experiment: Inhibitory activity against Staphylococcus aureus X1 at 10 mg/mL concentration using Agar disk plate assay; assay type: functional
[7] = test system: Acinetobacter calcoaceticus; experiment: Minimum inhibitory concentration against Acinetobacter calcoaceticus AC12; assay type: functional
[8] = test system: Geobacillus stearothermophilus; experiment: Inhibitory activity against Bacillus Stearothermophilus C451 at 1 mg/mL concentration using Agar disk plate assay; assay type: functional
[9] = test system: Geobacillus stearothermophilus; experiment: Inhibitory activity against Bacillus Stearothermophilus C451 at 10 mg/mL concentration using Agar disk plate assay; assay type: functional
Bacillus subtilis [10] = experiment: Inhibitory activity against Bacillus Subtilis X12 at 1 mg/mL concentration using Agar disk plate assay; assay type: functional
Bacillus subtilis [11] = experiment: Inhibitory activity against Bacillus Subtilis X12M at 1 mg/mL concentration using Agar disk plate assay; assay type: functional
Citrobacter freundii = experiment: Minimum inhibitory concentration against Citrobacter freundii CF17; assay type: functional
Escherichia coli [12] = experiment: Minimum inhibitory concentration against Escherichia coli N10; assay type: functional
Escherichia coli [13] = experiment: Minimum inhibitory concentration against Escherichia coli TEM; assay type: functional
Klebsiella aerogenes [14] = experiment: Minimum inhibitory concentration against Enterobacter aerogenes C32; assay type: functional
Escherichia coli [15] = experiment: Inhibitory activity against Escherichia coli X580 at 1 mg/mL concentration using Agar disk plate assay; assay type: functional
Escherichia coli [16] = experiment: Inhibitory activity against Escherichia coli X161 at 10 mg/mL concentration using Agar disk plate assay; assay type: functional
Escherichia coli [17] = experiment: Inhibitory activity against Escherichia coli X161 at 1 mg/mL concentration using Agar disk plate assay; assay type: functional
Escherichia coli [18] = experiment: Inhibitory activity against Escherichia coli X161M at 10 mg/mL concentration using Agar disk plate assay; assay type: functional
Escherichia coli [19] = experiment: Inhibitory activity against Escherichia coli X161M at 1 mg/mL concentration using Agar disk plate assay; assay type: functional
Enterobacter cloacae [20] = experiment: Minimum inhibitory concentration against Enterobacter cloacae 265A; assay type: functional
Enterobacter cloacae [21] = experiment: Minimum inhibitory concentration against Enterobacter cloacae EB5; assay type: functional
Haemophilus influenzae [22] = experiment: Minimum inhibitory concentration against Haemophilus influenza 76; assay type: functional
Haemophilus influenzae [23] = experiment: Minimum inhibitory concentration against Haemophilus influenza C.L; assay type: functional
Klebsiella pneumoniae [24] = experiment: Minimum inhibitory concentration against Klebsiella pneumoniae KAE; assay type: functional
Klebsiella pneumoniae [25] = experiment: Minimum inhibitory concentration against Klebsiella pneumoniae X26; assay type: functional
Klebsiella pneumoniae [26] = experiment: Minimum inhibitory concentration against Klebsiella pneumoniae X68; assay type: functional
Morganella morganii = experiment: Minimum inhibitory concentration against Proteus morganii PR15; assay type: functional
Pseudomonas aeruginosa [27] = experiment: Minimum inhibitory concentration against Pseudomonas aeruginosa (4 strains); assay type: functional
Proteus vulgaris [28] = experiment: Inhibitory activity against Proteus vulgaris X45 at 1 mg/mL concentration using Agar disk plate assay; assay type: functional
Pseudomonas aeruginosa [29] = experiment: Inhibitory activity against Pseudomonas aeruginosa X48 at 10 mg/mL concentration using Agar disk plate assay; assay type: functional
Ralstonia solanacearum [30] = experiment: Inhibitory activity against Pseudomonas solanacearum X185 at 10 mg/mL concentration using Agar disk plate assay; assay type: functional
Ralstonia solanacearum [31] = experiment: Inhibitory activity against Pseudomonas solanacearum X185 at 1 mg/mL concentration using Agar disk plate assay; assay type: functional
Proteus inconstans = experiment: Minimum inhibitory concentration against Proteus inconstans PR33; assay type: functional; conditions: Providencia alcalifaciens
Providencia rettgeri = experiment: Minimum inhibitory concentration against Proteus rettgeri C24; assay type: functional
Salmonella typhi [32] = experiment: Minimum inhibitory concentration against Salmonella typhi 1335; assay type: functional, Salmonella enterica subsp. enterica serovar Typhi; conditions: Salmonella enterica
Salmonella typhi [33] = experiment: Minimum inhibitory concentration against Salmonella typhi X514; assay type: functional, Salmonella enterica subsp. enterica serovar Typhi; conditions: Salmonella enterica
[34] = test system: Salmonella enterica subsp. enterica serovar Gallinarum; experiment: Inhibitory activity against Salmonella gallinarum X142 at 10 mg/mL concentration using Agar disk plate assay; assay type: functional
[35] = test system: Salmonella enterica subsp. enterica serovar Gallinarum; experiment: Inhibitory activity against Salmonella gallinarum X142 at 1 mg/mL concentration using Agar disk plate assay; assay type: functional
Serratia marcescens [36] = experiment: Minimum inhibitory concentration against Serratia marcescens SE3; assay type: functional
Micrococcus luteus [37] = experiment: Inhibitory activity against Sarcina lutea X186 at 1 mg/mL concentration using Agar disk plate assay; assay type: functional
Serratia marcescens [38] = experiment: Inhibitory activity against Serratia marcescens X99 at 10 mg/mL concentration using Agar disk plate assay; assay type: functional
[39] = test system: Staphylococcus epidermidis; experiment: Minimum inhibitory concentration against Staphylococcus epidermidis (2 strains); assay type: functional
Serratia marcescens [40] = experiment: Inhibitory activity against Serratia marcescens X99 at 1 mg/mL concentration using Agar disk plate assay; assay type: functional
Streptococcus pyogenes = experiment: Minimum inhibitory concentration against Streptococcus pyogenes C203; assay type: functional
Streptococcus pneumoniae = experiment: Minimum inhibitory concentration against Streptococcus pneumoniae Park I; assay type: functional
Streptococcus = experiment: Minimum inhibitory concentration against Streptococcus sp. Group D (2 strains); assay type: functional
Staphylococcus aureus [41] = experiment: Minimum inhibitory concentration against Staphylococcus aureus (4 strains); assay type: functional
Klebsiella aerogenes [42] = experiment: Minimum inhibitory concentration against Enterobacter aerogenes EB 17; assay type: functional
Escherichia coli [43] = experiment: Minimum inhibitory concentration against Escherichia coli EC14; assay type: functional
Serratia marcescens [44] = experiment: Minimum inhibitory concentration against Serratia marcescens X99; assay type: functional

Compound: O=C(O)CON1C[C@H](NC(=O)Cc2ccccc2)C1=O
- Zone of inhibition (Bacillus subtilis [1]): 16 mm
- Zone of inhibition (Bacillus subtilis [2]): 20 mm
- Zone of inhibition (Escherichia coli [3]): 11 mm
- Zone of inhibition (Proteus vulgaris [4]): 10 mm
- Zone of inhibition (Micrococcus luteus [5]): 23 mm
- Zone of inhibition (Staphylococcus aureus [6]): 23 mm

Compound: CO/N=C(/C(=O)N[C@@H]1C(=O)N(S(=O)(=O)[O-])[C@H]1C)c1csc(N)n1.[K+]
- MIC [7]: 4 µg/mL
- Zone of inhibition [8]: 25 mm
- Zone of inhibition [9]: 30 mm
- Zone of inhibition (Bacillus subtilis [1]): 23 mm
- Zone of inhibition (Bacillus subtilis [10]): 15 mm
- Zone of inhibition (Bacillus subtilis [2]): 30 mm
- Zone of inhibition (Bacillus subtilis [11]): 16 mm
- MIC (Citrobacter freundii): 0.25 µg/mL
- MIC (Escherichia coli [12]): 0.125 µg/mL
- MIC (Escherichia coli [13]): 0.125 µg/mL
- MIC (Klebsiella aerogenes [14]): 0.125 µg/mL
- Zone of inhibition (Escherichia coli [3]): 66 mm
- Zone of inhibition (Escherichia coli [15]): 54 mm
- Zone of inhibition (Escherichia coli [16]): 40 mm
- Zone of inhibition (Escherichia coli [17]): 40 mm
- Zone of inhibition (Escherichia coli [18]): 54 mm
- Zone of inhibition (Escherichia coli [19]): 40 mm
- MIC (Enterobacter cloacae [20]): > 64 µg/mL
- MIC (Enterobacter cloacae [21]): 0.125 µg/mL
- MIC (Haemophilus influenzae [22]): 0.25 µg/mL
- MIC (Haemophilus influenzae [23]): 0.5 µg/mL
- MIC (Klebsiella pneumoniae [24]): > 64 µg/mL
- MIC (Klebsiella pneumoniae [25]): 0.06 µg/mL
- MIC (Klebsiella pneumoniae [26]): 0.125 µg/mL
- MIC (Morganella morganii): 0.25 µg/mL
- MIC (Pseudomonas aeruginosa [27]): > 64 µg/mL
- Zone of inhibition (Proteus vulgaris [4]): 46 mm
- Zone of inhibition (Proteus vulgaris [28]): 40 mm
- Zone of inhibition (Pseudomonas aeruginosa [29]): 25 mm
- Zone of inhibition (Ralstonia solanacearum [30]): 40 mm
- Zone of inhibition (Ralstonia solanacearum [31]): 29 mm
- MIC (Proteus inconstans): 0.03 µg/mL
- MIC (Providencia rettgeri): 0.03 µg/mL
- MIC (Salmonella typhi [32]): 0.125 µg/mL
- MIC (Salmonella typhi [33]): 0.06 µg/mL
- Zone of inhibition (Micrococcus luteus [5]): 27 mm
- Zone of inhibition [34]: 36 mm
- Zone of inhibition [35]: 48 mm
- MIC (Serratia marcescens [36]): 0.25 µg/mL
- Zone of inhibition (Micrococcus luteus [37]): 25 mm
- Zone of inhibition (Staphylococcus aureus [6]): 22 mm
- Zone of inhibition (Serratia marcescens [38]): 40 mm
- MIC [39]: > 64 µg/mL
- Zone of inhibition (Serratia marcescens [40]): 33 mm
- MIC (Streptococcus pyogenes): 4 µg/mL
- MIC (Streptococcus pneumoniae): 4 µg/mL
- MIC (Streptococcus): > 64 µg/mL
- MIC (Staphylococcus aureus [41]): > 64 µg/mL
- MIC (Klebsiella aerogenes [42]): 0.125 µg/mL
- MIC (Escherichia coli [43]): 0.06 µg/mL
- MIC (Serratia marcescens [44]): 0.25 µg/mL

Compound: CO/N=C(\C(=O)N[C@@H]1C(=O)N(O[C@H](OC(C)=O)C(=O)[O-])[C@H]1C)c1csc(N)n1.[K+]
- Zone of inhibition (Escherichia coli [15]): 46 mm
- Zone of inhibition (Escherichia coli [17]): 17 mm
- Zone of inhibition (Escherichia coli [19]): 30 mm
- Zone of inhibition (Proteus vulgaris [28]): 28 mm
- Zone of inhibition [35]: 25 mm
- Zone of inhibition (Serratia marcescens [40]): 24 mm

Compound: CO/N=C(\C(=O)N[C@@H]1C(=O)N(OCC(=O)[O-])[C@H]1C)c1csc(N)n1.[K+]
- MIC [7]: > 64 µg/mL
- Zone of inhibition [9]: 24 mm
- Zone of inhibition (Bacillus subtilis [1]): 13 mm
- Zone of inhibition (Bacillus subtilis [2]): 19 mm
- MIC (Citrobacter freundii): 2 µg/mL
- MIC (Escherichia coli [12]): 0.25 µg/mL
- MIC (Escherichia coli [13]): 0.5 µg/mL
- MIC (Klebsiella aerogenes [14]): 0.25 µg/mL
- Zone of inhibition (Escherichia coli [3]): 56 mm
- Zone of inhibition (Escherichia coli [16]): 35 mm
- Zone of inhibition (Escherichia coli [18]): 44 mm
- MIC (Enterobacter cloacae [20]): > 64 µg/mL
- MIC (Enterobacter cloacae [21]): 1 µg/mL
- MIC (Haemophilus influenzae [22]): 1 µg/mL
- MIC (Haemophilus influenzae [23]): 1 µg/mL
- MIC (Klebsiella pneumoniae [24]): 32 µg/mL
- MIC (Klebsiella pneumoniae [25]): 0.25 µg/mL
- MIC (Klebsiella pneumoniae [26]): 0.25 µg/mL
- MIC (Morganella morganii): 2 µg/mL
- MIC (Pseudomonas aeruginosa [27]): > 64 µg/mL
- Zone of inhibition (Proteus vulgaris [4]): 36 mm
- Zone of inhibition (Pseudomonas aeruginosa [29]): 15 mm
- Zone of inhibition (Ralstonia solanacearum [30]): 20 mm
- MIC (Proteus inconstans): 0.125 µg/mL
- MIC (Providencia rettgeri): 0.125 µg/mL
- MIC (Salmonella typhi [32]): 0.25 µg/mL
- MIC (Salmonella typhi [33]): 0.125 µg/mL
- Zone of inhibition (Micrococcus luteus [5]): 22 mm
- Zone of inhibition [34]: 30 mm
- MIC (Serratia marcescens [36]): 1 µg/mL
- Zone of inhibition (Staphylococcus aureus [6]): 19 mm
- Zone of inhibition (Serratia marcescens [38]): 33 mm
- MIC [39]: > 64 µg/mL
- MIC (Streptococcus pyogenes): 16 µg/mL
- MIC (Streptococcus pneumoniae): 32 µg/mL
- MIC (Streptococcus): > 64 µg/mL
- MIC (Staphylococcus aureus [41]): > 64 µg/mL
- MIC (Klebsiella aerogenes [42]): 0.25 µg/mL
- MIC (Escherichia coli [43]): 0.25 µg/mL
- MIC (Serratia marcescens [44]): 0.5 µg/mL
